Measured values taken from patent US7105515B2, “Derivatives of sulphonamides, their preparation and use as medicaments” (Laboratories Del Dr. Esteve, S.A., priority 2001, dated 2006).
Structures can show the parent of a compound that is named as a salt.

Work on `CCN(CC)CCc1c[nH]c2ccc(NS(=O)(=O)c3cccc4ccccc34)cc12` (as salt: HCl) [Example 3, Hydrochloride N-[3-(2-diethylaminoethyl)-1H-indol-5-yl]naphthalene-1-sulphonamide] yielded a melting point of 255 to 257 °C.
In the case of `CN1CCC(c2c[nH]c3ccc(NS(=O)(=O)c4cccc5ccccc45)cc23)CC1` (as salt: HCl) [Example 13, N-[3-(1-methylpiperidin-4-yl)-1H-indol-5-yl]naphthalene-1-sulphonamide hydrochloride], the melting point is reported as 212 °C (dec.).
With `CCN(CC)CCc1c[nH]c2ccc(NS(=O)(=O)c3sc4ccc(Cl)cc4c3C)cc12` [Example 1, N-[3-(2-diethylaminoethyl)-1H-indol-5-yl]-5-chloro-3-methylbenzo[b]thiophene-2-sulphonamide] the melting point was 170 to 173 °C.
With `CCN(CC)CCc1c[nH]c2ccc(NS(=O)(=O)c3cc(Cl)cc(Cl)c3)cc12` [Example 4, N-[3-(2-diethylaminoethyl)-1H-indol-5-yl]-3,5-dichlorobenzenesulphonamide] the melting point was 168 to 170 °C.
In the case of `CCN(CC)CCc1c[nH]c2ccc(NS(=O)(=O)c3ccc(-c4ccccc4)cc3)cc12` [Example 5, N-[3-(2-diethylaminoethyl)-1H-indol-5-yl]-4-phenylbenzenesulphonamide], the melting point is reported as 161 to 163 °C.
`CCN(CC)CCc1c[nH]c2ccc(NS(=O)(=O)c3ccc(Cl)s3)cc12` [Example 6, N-[3-(2-diethylaminoethyl)-1H-indol-5-yl]-5-chlorothiophene-2-sulphonamide] gave a melting point of 180 to 181 °C.
In the case of `Cc1c(S(=O)(=O)Nc2ccc3[nH]cc(CCN(C)C)c3c2)sc2ccc(Cl)cc12` [Example 7, N-[3-(2-dimethylaminoethyl)-1H-indol-5-yl]-5-chloro-3-methylbenzo[b]thiophene-2-sulphonamide], the melting point is reported as 226 to 227 °C.
`CN(C)CCc1c[nH]c2ccc(NS(=O)(=O)c3cccc4ccccc34)cc12` [Example 8, N-[3-(2-dimethylaminoethyl)-1H-indol-5-yl]naphthalene-1-sulphonamide] gave a melting point of 203 to 205 °C.
In the case of `CN1CCC(c2c[nH]c3ccc(NS(=O)(=O)c4ccc(Cl)s4)cc23)CC1` [Example 14, N-[3-(1-methylpiperidin-4-yl)-1H-indol-5-yl]-5-chlorothiophene-2-sulphonamide], the melting point is reported as 284 °C (dec.).
`CN1CCC(c2c[nH]c3ccc(NS(=O)(=O)c4ccc(-c5ccccc5)cc4)cc23)CC1` [Example 15, N-[3-(1-methylpiperidin-4-yl)-1H-indol-5-yl]-4-phenylbenzenesulphonamide] gave a melting point of 247 to 248 °C.
In the case of `CN1CCC(c2c[nH]c3ccc(NS(=O)(=O)c4cccc5cccnc45)cc23)CC1` [Example 16, N-[3-(1-methylpiperidin-4-yl)-1H-indol-5-yl]quinoline-8-sulphonamide], the melting point is reported as 280 °C (dec.).
`CCN(CC)CCc1c[nH]c2ccc(NS(=O)(=O)c3ccc4ccccc4c3)cc12` [Example 17, N-[3-(2-diethylaminoethyl)-1H-indol-5-yl]naphthalene-2-sulphonamide] gave a melting point of 172 to 173 °C.
